# Test results from ChEMBL document CHEMBL1201862, “PubChem BioAssay data set” (2004).
# Active and inactive are the calls of the source.
# Assays:
# [1] = HEp-2 cell cytotoxicity, dose response, cytotoxicity control for RSV inhibitor project, HTS (AID 2410); format: functional; conditions: human respiratory syncytial virus
# Cytochrome P450 2C19 = Cytochrome P450 2C19 (Homo sapiens, UniProt P33261); assay: Cytochrome panel assay with activity outcomes. Panel member name: p450-cyp2c19 Compounds with AC50 equal or less than 10 uM are considered active; format: functional; conditions: read-out: AC50
# Sequence of Cytochrome P450 2C19 (P33261 whole entry): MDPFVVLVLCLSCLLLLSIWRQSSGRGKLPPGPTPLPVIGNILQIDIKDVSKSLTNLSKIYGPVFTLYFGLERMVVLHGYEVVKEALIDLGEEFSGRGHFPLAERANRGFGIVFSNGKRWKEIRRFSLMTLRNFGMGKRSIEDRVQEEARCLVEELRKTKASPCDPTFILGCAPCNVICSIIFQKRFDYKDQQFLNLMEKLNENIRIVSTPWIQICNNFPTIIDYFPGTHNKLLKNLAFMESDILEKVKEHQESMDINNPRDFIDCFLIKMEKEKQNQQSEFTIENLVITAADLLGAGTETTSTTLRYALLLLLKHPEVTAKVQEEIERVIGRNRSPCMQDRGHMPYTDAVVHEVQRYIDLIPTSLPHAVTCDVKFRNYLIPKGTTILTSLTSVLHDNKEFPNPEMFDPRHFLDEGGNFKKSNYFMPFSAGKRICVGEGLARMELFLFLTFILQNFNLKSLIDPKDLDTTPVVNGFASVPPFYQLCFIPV
# [2] = biological target: T1, Heat shock factor protein 1 (Mus musculus, UniProt P38532); assay: HSF1 potentiators in luciferase reporter cells, confirmation, cell-based, NIH3T3, luminescence, dose retest (AID 435004); format: functional;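 further: stress induced by proteasome inhibitor MG132 added 30 min after compound; luciferase reporter driven by HSF1 response element in NIH3T3 cells; actives raise luminescence as potentiators of the MG132 stress response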
# T1 sequence (P38532 whole entry): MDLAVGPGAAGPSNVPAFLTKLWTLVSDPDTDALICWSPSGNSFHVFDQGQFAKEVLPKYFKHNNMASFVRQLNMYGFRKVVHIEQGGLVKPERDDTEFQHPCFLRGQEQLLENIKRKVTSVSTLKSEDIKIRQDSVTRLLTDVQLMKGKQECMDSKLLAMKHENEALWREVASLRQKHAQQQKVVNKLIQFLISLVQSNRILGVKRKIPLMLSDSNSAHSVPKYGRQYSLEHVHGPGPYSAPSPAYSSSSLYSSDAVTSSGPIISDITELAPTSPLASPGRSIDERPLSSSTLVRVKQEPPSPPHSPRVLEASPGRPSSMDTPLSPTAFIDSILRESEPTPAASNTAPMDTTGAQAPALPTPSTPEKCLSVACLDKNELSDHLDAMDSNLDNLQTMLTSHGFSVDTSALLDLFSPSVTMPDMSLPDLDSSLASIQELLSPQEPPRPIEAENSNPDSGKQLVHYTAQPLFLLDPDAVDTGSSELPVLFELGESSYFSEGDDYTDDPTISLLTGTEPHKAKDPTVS
# [3] = inhibitors of intracellular T. cruzi replication, confirmation, NIH3T3 host cells, beta-gal luminescence (AID 2044); format: functional, cell-based;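 further: intracellular parasites grown in NIH/3T3 mouse fibroblasts as host cells; luminescent beta-galactosidase reporter signal from transgenic T. cruzi replicating inside host cells; inhibitors lower the luminescence signal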
# [4] = cytotoxicity toward NIH3T3 fibroblasts, dose response, counter-screen, cell-based, ATP luminescence, mouse fibroblasts (AID 2010); format: functional;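 further: cells exposed to compound for about 90 hours before reading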
# [5] = tested on: Streptococcus sp. 'group A'; assay: growth inhibition of control SK(-) GAS strain, dose response, counter-screen for streptokinase expression inhibitor project, luminescence, kanamycin, BacTiterGlo, confirmation (AID 1900); format: functional, organism-based
# Streptokinase A = biological target: T2, Streptokinase A (Streptococcus pyogenes serotype M1, UniProt P10520); assay: S. pyogenes streptokinase expression inhibitors, potency, dose response, plasminogen activation absorbance, OD405 (AID 1914); format: functional, Streptococcus pyogenes M1 GAS;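 further: secreted streptokinase activity via plasminogen activation per viability signal from cell pellet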
# T2 sequence (P10520 whole entry): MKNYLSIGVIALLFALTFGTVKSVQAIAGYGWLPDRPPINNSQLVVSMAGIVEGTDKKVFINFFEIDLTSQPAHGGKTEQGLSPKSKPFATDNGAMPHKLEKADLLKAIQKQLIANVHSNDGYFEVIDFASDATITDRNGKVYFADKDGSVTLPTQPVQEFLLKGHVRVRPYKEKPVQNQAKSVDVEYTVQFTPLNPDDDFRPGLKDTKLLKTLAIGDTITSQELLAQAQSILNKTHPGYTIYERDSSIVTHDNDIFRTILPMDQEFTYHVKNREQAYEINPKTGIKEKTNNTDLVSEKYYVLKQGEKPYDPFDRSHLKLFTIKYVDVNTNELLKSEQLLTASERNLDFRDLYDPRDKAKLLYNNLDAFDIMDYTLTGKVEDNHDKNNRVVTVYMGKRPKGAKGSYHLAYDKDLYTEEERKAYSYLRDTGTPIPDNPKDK
# Streptococcus = assay: Group A Streptococcus viability loss, dose response, counter-screen for streptokinase expression inhibitor project, luminescence, BacTiterGlo (AID 1915); format: functional, organism-based;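 further: potency for reduction of bacterial viability or growth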
smiles,measurement,setting,value
Nc1c(Cl)cc(-c2csc(N3CCCC3c3nc4cc(Cl)c(Cl)cc4n3CCCO)n2)cc1Cl (configuration not stated),CC50,[1],35.1 µM (active)
Cc1sc(NC(=O)c2c(F)cccc2F)nc1-c1ccccc1,CC50,[1],43.2 µM (active)
COc1cc(C(=O)NCC(c2cccs2)N2CCc3ccccc32)cc(OC)c1OC (configuration not stated),CC50,[1],18 µM (active)
Cc1cc(OC(=O)c2ccccc2Br)cc(=O)n1C,AC50,Cytochrome P450 2C19,39.8 µM (inconclusive)
CCNc1nc(NC(C)C)nc(N(C#N)C(C)C(=O)N(CC)CC)n1 (configuration not stated),CC50,[1],28.8 µM (active)
C=CCOc1ccc(-c2nc3c(c(=O)[nH]c(=O)n3Cc3ccccc3)n2CCCOC)cc1,EC50,[2],> 260 µM (inactive)
Cc1ccccc1OCCCC(=O)Nc1ccccc1C(F)(F)F,EC50,[2],> 260 µM (inactive)
COc1cc(C(=O)NCC(c2cccnc2)N2CCN(c3ccc(F)cc3)CC2)cc(OC)c1OC (configuration not stated),EC50,[3],0.959 µM (active)
same,EC50,[4],> 30 µM (not active)
COc1ccc(-c2cc(-c3ccc(Cl)cc3)[nH]n2)c(O)c1,EC50,[5],7.27 µM (active)
same,EC50,Streptokinase A,> 150 µM (not active)
same,EC50,Streptococcus,9.14 µM (active)
N#CCCN1CCN(C(=S)c2ccc(-c3ccc(Cl)c(Cl)c3)o2)CC1,EC50,[2],3.72 µM (active)
COc1cc(C(=O)NCC2CCCO2)ccc1OCc1ccc(Cl)cc1Cl (configuration not stated),EC50,[2],104 µM (active)
CCN(CC)CCCNC(=O)c1ccc(OCC(=O)Nc2ccccc2C(F)(F)F)c(OC)c1,EC50,[3],1.95 µM (active)
same,EC50,[4],> 30 µM (not active)
O=C(O)CSc1nc2ccccc2nc1Cc1ccccc1F,EC50,[2],> 260 µM (inactive)
O=C(Nc1nc2c(s1)CN(Cc1ccccc1)CC2)c1c(F)cccc1F,CC50,[1],16.1 µM (active)
Nc1nc(-c2cccnc2)nc2sc3c(c12)CCCC3,CC50,[1],> 50 µM (active)
COc1ccc(C2CC(=O)c3c(C)nc(N4CCN(Cc5ccccc5)CC4)nc3C2)cc1OC (configuration not stated),EC50,[3],1.85 µM (active)
same,EC50,[4],> 60 µM (not active)
Cc1ccc2nc(-c3ccncc3)c(NC3CCCCC3)n2c1,EC50,[3],1.86 µM (active)
same,EC50,[4],> 60 µM (not active)
COc1ccccc1OCc1nnc(SCCN2CCOCC2)o1,EC50,[2],> 260 µM (inactive)
Cc1ccc(C)c(N2CCN(C(=O)CCC(=O)N3CCOc4ccc(Cl)cc43)CC2)c1,EC50,[3],2.47 µM (active)
same,EC50,[4],> 60 µM (not active)
CCCC(CCC)C(=O)OC[N+](C)(C)CCOC(=O)C(O)(c1ccccc1)C1CCCC1 (configuration not stated),EC50,[3],1.31 µM (active)
same,EC50,[4],> 60 µM (not active)
Cc1cc(C)cc(Nc2ccc([N+](=O)[O-])nc2[N+](=O)[O-])c1,EC50,[3],1.63 µM (active)
same,EC50,[4],> 60 µM (not active)
CC(Oc1cccc(Cl)c1)C(=O)Nc1ccccc1N1CCCCC1 (configuration not stated),EC50,[5],9.74 µM (active)
same,EC50,Streptokinase A,13.5 µM (active)
same,EC50,Streptococcus,26.4 µM (active)
COc1ccccc1NS(=O)(=O)c1cc(NC(=S)NCC2CCCO2)ccc1C (configuration not stated),EC50,Streptokinase A,> 150 µM (not active)
COc1ccccc1NS(=O)(=O)c1cc(NC(S)=NCC2CCCO2)ccc1C (configuration not stated),EC50,[5],> 150 µM (not active)
same,EC50,Streptococcus,> 150 µM (not active)
Cc1cc(-c2ccccc2)c2c(O)[nH]nc2n1,CC50,[1],48.2 µM (active)
COc1ccc(C2C(C(C)=O)=C(O)C(=O)N2c2ccc(C)cc2)cc1 (configuration not stated),EC50,[2],> 260 µM (inactive)
CC(C)(C)c1[nH]ncc1[N+](=O)[O-],EC50,[2],> 260 µM (inactive)
Cc1ccccc1N=C(S)N(Cc1cccnc1)Cc1ccccc1Cl,EC50,[3],0.8 µM (active)
same,EC50,[4],> 60 µM (not active)
CC(=O)c1ccc(N=C(S)N2C(C)CCCC2C)cc1 (configuration not stated),EC50,[2],> 260 µM (inactive)
CCN(CCCC(=O)c1ccc(F)cc1)CCc1ccccc1,EC50,[3],0.111 µM (active)
same,EC50,[4],> 60 µM (not active)
Cc1nc(N2CCN(Cc3ccc4c(c3)OCO4)CC2)c2cc(-c3ccccc3)sc2n1,EC50,[5],19.3 µM (active)
same,EC50,Streptokinase A,> 150 µM (not active)
same,EC50,Streptococcus,112 µM (active)
Cc1cc(OCCCn2ccnc2)ccc1C(C)C,EC50,[3],1.99 µM (active)
same,EC50,[4],> 60 µM (not active)
Brc1c[nH]c2nc(SC/C=C/c3ccccc3)nc-2c1,EC50,[2],1.37 µM (active)
COc1ccc(-n2c(=S)[nH]c3cc(C(=O)Nc4ccc(C)c(F)c4)ccc3c2=O)c(OC)c1,EC50,[5],9.84 µM (active)
same,EC50,Streptokinase A,> 150 µM (not active)
same,EC50,Streptococcus,14.8 µM (active)
COc1ccc(-c2ncc(CN3CCN(CCC(C)C)C(CCO)C3)cn2)cc1 (configuration not stated),EC50,[3],0.933 µM (active)
same,EC50,[4],12.3 µM (active)
Cc1cccc(C(=O)N2CCC(=O)N(C(COCc3ccc(Cl)cc3)Cc3ccccc3)CC2)c1 (configuration not stated),CC50,[1],19.6 µM (active)
Cc1ccccc1Oc1nc2c(C)cccn2c(=O)c1/C=C(\C#N)C(=O)Nc1c(C)n(C)n(-c2ccccc2)c1=O,EC50,[2],12.1 µM (active)
O=C(Nc1ncc(Cc2cccc(C(F)(F)F)c2)s1)c1ccc(-c2cccc([N+](=O)[O-])c2)o1,EC50,[3],1.73 µM (active)
same,EC50,[4],9.52 µM (active)
O=C(NC12CC3CC(CC(C3)C1)C2)c1ccc(-c2ccc(Br)cc2)o1,EC50,[5],4.59 µM (active)
same,EC50,Streptokinase A,35.3 µM (active)
same,EC50,Streptococcus,9.47 µM (active)
CCN(C(=O)c1cc2c(s1)-c1ccccc1OC2)c1cc(OC)ccc1OC,CC50,[1],26.8 µM (active)
CCN1CCN(C(CNS(=O)(=O)c2ccc(C)cc2)c2cccnc2)CC1 (configuration not stated),EC50,[5],> 150 µM (not active)
same,EC50,Streptokinase A,> 150 µM (not active)
same,EC50,Streptococcus,> 150 µM (not active)
COc1ccc(Cl)cc1C(=O)NNC(=S)NC(=O)c1cc(-c2ccc(Cl)cc2)nc2ccccc12,EC50,[5],0.202 µM (active)
same,EC50,Streptococcus,6 µM (active)
CCCC(=O)Nc1cc(-c2nn(C)c(=O)c3ccccc23)ccc1OC,EC50,[2],> 260 µM (inactive)
OCCC1CN(Cc2cc3c(cc2Cl)OCO3)CCN1Cc1ccccc1 (configuration not stated),EC50,[3],1.21 µM (active)
same,EC50,[4],> 60 µM (not active)
CC(=O)c1cccc(S(=O)(=O)N2CCCC(c3nc(O)c4nnn(Cc5cccc(Cl)c5)c4n3)C2)c1 (configuration not stated),CC50,[1],> 50 µM (active)
C#C[C@@]1(O)CC[C@@H]2[C@@H]3CCC4=CC(=O)CC[C@@H]4[C@H]3CC[C@]21CC,AC50,Cytochrome P450 2C19,0.0794 µM (inconclusive)
Cc1ccc(C)c(S(=O)(=O)N2CCN(CC(=O)Nc3cc(C)on3)CC2)c1,EC50,[2],> 260 µM (inactive)
C=CCn1c(-c2ccc(Cl)cc2)ccc(C#N)c1=O,CC50,[1],> 50 µM (active)
CC(Oc1ccc(Cl)cc1Cl)C(=O)NCCCCc1ccccc1 (configuration not stated),EC50,[2],> 260 µM (inactive)
Cc1ccc2nc(-c3ccncc3)c(NC3CCCC3)n2c1,EC50,[3],2.29 µM (active)
same,EC50,[4],> 60 µM (not active)
COc1ccc(-c2ccc([C@H]3[C@@H]4C=CCC[C@@]4(C)C(=O)N3Cc3ccccc3)c(F)c2)cc1OC,EC50,[3],2.55 µM (active)
same,EC50,[4],37.1 µM (active)
CC1(C)CC(=O)C(/C=N/c2cccnc2)=C(O)C1,EC50,[2],16.6 µM (active)
C/C(=N\NC(=O)c1ccccc1N)c1ccc(NC(=O)Cc2ccccc2)cc1,EC50,[5],3.07 µM (active)
same,EC50,Streptokinase A,> 150 µM (not active)
same,EC50,Streptococcus,16.3 µM (active)
C/C(=N\Nc1nc(C)cc(-c2ccccc2)n1)c1ccc(C)o1,EC50,[2],> 260 µM (inactive)
C=CCn1sc(N)c(C(=O)OCC)c1=S,CC50,[1],24 µM (active)
COc1cccc(-c2c(C#N)c(N)nc3c2c(C)nn3-c2ccccc2)c1O,EC50,[2],57.9 µM (active)
